Key:
[1] = RRCK passive permeability; settings: dog, MDCK
[2] = molecular target: T1, Norepinephrine Transporter (Homo sapiens, UniProt P23975); test: CEREP transporters-binding
T1 construct: purchased Eurofins Cerep

Serotonin Transporter = molecular target: T2, Serotonin Transporter (Homo sapiens, UniProt P31645); test: CEREP transporters-binding
T2 construct: purchased Eurofins Cerep

EGFR Kinase = molecular target: T3, EGFR Kinase (Homo sapiens, UniProt P00533); test: CEREP kinase inhibition; format: biochemical
T3 construct: purchased Eurofins Cerep

Human Cathepsin K = molecular target: T4, Human Cathepsin K (Homo sapiens, UniProt P43235); test: biochemical
T4 construct: assay run at Reaction Biology Corporation
T4 sequence (P43235 115-329): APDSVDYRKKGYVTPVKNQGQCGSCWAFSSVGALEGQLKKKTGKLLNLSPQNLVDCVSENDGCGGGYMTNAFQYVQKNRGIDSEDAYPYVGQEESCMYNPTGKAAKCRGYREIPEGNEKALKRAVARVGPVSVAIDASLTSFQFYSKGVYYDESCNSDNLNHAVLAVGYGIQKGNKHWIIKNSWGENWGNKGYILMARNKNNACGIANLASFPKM

Human Chymotrypsin = format: biochemical
hCoV-229E_PLpro2 = hCoV-229E_PLpro2 (Human coronavirus 229E, UniProt P0C6X1); test: biochemical; parameters: species or system 229E-CoV
Sequence of hCoV-229E_PLpro2 (P0C6X1 1663-1914): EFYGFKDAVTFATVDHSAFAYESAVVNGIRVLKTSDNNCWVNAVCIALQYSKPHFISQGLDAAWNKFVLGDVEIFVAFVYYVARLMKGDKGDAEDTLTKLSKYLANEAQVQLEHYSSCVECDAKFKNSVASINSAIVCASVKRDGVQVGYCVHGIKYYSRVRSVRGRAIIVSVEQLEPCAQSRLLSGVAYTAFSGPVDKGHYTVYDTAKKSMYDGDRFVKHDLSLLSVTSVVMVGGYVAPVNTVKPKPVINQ

[3] = molecular target: T5, Angiotensin Converting Enzyme (Homo sapiens, UniProt P12821); test: CEREP enzyme inhibition; format: biochemical
T5 construct: purchased Eurofins Cerep
T5 sequence (P12821 30-1306): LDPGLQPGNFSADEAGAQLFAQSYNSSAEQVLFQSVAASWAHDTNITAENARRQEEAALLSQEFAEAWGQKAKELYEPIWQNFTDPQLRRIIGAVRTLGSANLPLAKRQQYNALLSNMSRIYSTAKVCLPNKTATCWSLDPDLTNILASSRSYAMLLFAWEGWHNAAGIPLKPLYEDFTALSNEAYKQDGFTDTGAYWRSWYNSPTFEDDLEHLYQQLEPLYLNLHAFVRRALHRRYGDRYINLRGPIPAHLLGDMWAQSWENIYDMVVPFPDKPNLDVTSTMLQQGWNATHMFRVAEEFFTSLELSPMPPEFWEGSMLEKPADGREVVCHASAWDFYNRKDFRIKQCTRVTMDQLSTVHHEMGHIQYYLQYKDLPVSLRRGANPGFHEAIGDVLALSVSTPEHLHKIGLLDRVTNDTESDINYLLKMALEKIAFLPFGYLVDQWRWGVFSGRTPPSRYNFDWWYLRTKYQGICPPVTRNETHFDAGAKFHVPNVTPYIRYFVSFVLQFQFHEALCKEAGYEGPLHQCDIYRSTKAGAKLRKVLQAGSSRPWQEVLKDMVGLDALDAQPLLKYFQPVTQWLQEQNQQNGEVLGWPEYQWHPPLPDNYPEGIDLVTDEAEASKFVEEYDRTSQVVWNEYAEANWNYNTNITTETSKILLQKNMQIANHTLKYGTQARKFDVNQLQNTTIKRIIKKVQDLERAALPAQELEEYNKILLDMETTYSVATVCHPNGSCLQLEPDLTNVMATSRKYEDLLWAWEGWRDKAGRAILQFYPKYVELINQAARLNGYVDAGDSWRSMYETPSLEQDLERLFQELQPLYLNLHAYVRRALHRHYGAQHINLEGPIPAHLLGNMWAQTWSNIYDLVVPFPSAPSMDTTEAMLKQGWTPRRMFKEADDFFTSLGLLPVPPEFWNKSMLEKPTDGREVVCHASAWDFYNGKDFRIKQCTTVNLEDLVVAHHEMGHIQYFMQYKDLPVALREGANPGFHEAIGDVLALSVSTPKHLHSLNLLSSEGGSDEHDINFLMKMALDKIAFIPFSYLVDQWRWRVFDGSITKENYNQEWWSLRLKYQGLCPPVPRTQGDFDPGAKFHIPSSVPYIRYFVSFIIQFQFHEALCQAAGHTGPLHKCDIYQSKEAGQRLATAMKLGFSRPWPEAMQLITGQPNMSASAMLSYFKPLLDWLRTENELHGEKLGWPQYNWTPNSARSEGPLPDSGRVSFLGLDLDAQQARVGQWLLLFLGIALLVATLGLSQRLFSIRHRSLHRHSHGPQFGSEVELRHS

[4] = molecular target: T6, human Nav1.5 sodium channel (Homo sapiens, UniProt Q14524); test: hNav1.5 automated patch clamp; format: cell-based; settings: read-out: NaV IC50
T6 construct: assay run at Metrion Biosciences Ltd; host or cells: CHO
T6 sequence (Q14524 whole entry): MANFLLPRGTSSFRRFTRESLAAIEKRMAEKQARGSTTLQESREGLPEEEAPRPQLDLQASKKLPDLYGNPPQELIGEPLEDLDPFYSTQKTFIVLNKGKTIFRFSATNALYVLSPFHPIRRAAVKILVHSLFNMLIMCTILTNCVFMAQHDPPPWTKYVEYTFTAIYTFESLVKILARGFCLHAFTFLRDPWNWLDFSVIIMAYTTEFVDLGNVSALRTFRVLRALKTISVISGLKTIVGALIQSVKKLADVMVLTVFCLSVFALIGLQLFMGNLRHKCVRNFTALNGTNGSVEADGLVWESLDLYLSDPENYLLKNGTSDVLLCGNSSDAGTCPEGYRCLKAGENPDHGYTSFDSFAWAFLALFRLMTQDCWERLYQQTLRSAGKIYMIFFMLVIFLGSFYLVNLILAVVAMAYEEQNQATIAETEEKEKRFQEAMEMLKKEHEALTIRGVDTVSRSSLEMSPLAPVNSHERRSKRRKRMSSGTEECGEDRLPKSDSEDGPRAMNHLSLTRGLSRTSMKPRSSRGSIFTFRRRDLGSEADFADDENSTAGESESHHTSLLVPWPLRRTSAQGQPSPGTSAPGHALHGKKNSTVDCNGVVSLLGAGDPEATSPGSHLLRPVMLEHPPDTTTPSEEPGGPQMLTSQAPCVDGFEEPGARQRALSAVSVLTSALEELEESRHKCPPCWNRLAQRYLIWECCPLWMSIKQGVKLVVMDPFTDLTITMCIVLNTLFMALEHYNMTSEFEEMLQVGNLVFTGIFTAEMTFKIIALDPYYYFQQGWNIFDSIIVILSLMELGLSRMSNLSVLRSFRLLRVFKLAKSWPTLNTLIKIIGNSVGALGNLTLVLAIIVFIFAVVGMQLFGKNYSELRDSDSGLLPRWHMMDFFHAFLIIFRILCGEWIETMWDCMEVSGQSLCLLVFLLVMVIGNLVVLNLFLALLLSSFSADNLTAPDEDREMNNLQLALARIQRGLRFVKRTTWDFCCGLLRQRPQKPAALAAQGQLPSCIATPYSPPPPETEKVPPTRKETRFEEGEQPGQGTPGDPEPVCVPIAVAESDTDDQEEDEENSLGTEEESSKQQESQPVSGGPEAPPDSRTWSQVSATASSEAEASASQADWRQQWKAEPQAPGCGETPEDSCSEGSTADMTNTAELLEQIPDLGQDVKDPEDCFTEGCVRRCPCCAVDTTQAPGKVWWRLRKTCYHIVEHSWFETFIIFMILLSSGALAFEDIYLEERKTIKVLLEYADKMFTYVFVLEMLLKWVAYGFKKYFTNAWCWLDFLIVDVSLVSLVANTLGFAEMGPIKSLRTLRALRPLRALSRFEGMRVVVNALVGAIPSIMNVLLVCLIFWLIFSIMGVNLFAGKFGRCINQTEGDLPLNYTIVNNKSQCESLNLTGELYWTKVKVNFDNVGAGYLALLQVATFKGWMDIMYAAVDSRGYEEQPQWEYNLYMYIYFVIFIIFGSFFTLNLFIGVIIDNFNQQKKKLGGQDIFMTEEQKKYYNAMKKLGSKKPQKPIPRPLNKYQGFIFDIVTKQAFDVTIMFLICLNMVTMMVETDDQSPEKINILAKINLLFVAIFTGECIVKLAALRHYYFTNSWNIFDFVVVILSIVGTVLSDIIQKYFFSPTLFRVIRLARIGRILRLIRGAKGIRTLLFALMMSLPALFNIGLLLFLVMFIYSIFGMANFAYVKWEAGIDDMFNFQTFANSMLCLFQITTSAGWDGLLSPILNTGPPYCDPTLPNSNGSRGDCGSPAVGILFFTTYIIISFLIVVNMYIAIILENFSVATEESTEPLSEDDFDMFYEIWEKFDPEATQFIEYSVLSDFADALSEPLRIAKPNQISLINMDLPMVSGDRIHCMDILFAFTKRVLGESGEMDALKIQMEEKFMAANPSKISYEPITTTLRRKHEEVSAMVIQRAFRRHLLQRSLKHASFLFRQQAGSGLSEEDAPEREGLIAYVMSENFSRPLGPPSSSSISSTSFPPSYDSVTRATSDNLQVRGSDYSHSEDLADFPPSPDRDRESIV
Procedure: Hz, and hCav1.2 current was measured as the peak current at 0 mV. All studies were […]
Three vehicle periods each lasting 5 minutes were applied to establish a stable baseline.
This was followed by the addition of increasing concentrations of test compound, with each exposure lasting 5 minutes. Patch clamp data were analyzed using Analyzer Software 6.4.72. Current amplitudes were determined by averaging the last 4 currents under each test condition. The percentage inhibition of each compound was determined by taking the ratio of current amplitude measured in the presence of various concentrations of the test compound (ICompound) versus the vehicle control current (IVehicle): % Inhibition = [1-(I Compound/IVehicle)] * 100%. A dose-response curve was generated and fit to the Hill equation by the Sophion Analyzer software to determine an IC50 value for each compound. The minimum and the […]
CHO cells stably expressing the human Nav1.5 sodium channel (University of Pennsylvania, Philadelphia, PA, hNav1.5 clone #6) were cultured in Hams F12 + Glutamax media supplemented with 10% FBS and Geneticin (0.5 mg/mL) at 37°C and 5% CO2 and subcultured every 2-3 days in T175 flasks. […]
Ionic currents were evaluated in the whole-cell configuration using the Qube384 platform using QChip 384x plates. […]

PDE4D2 = molecular target: T7, PDE4D2 (Homo sapiens, UniProt Q08499); test: CEREP enzyme inhibition; format: biochemical
T7 construct: purchased Eurofins Cerep

T1 sequence (P23975 whole entry): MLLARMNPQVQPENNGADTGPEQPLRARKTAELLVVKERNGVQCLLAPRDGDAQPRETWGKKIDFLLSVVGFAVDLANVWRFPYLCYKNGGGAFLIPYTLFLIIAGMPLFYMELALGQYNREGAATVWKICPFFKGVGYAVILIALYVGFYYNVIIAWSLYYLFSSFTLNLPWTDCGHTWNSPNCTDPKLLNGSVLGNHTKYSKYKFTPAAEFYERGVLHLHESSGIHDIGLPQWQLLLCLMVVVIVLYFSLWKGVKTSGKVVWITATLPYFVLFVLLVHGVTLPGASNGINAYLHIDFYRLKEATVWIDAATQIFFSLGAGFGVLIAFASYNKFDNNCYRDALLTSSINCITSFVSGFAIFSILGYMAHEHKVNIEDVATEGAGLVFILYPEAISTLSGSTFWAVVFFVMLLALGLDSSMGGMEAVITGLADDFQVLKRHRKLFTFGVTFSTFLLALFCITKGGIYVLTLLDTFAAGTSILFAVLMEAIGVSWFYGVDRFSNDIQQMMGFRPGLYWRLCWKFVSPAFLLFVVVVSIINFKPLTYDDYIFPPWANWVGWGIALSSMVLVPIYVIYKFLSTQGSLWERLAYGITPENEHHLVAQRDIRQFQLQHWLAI
T2 sequence (P31645 whole entry): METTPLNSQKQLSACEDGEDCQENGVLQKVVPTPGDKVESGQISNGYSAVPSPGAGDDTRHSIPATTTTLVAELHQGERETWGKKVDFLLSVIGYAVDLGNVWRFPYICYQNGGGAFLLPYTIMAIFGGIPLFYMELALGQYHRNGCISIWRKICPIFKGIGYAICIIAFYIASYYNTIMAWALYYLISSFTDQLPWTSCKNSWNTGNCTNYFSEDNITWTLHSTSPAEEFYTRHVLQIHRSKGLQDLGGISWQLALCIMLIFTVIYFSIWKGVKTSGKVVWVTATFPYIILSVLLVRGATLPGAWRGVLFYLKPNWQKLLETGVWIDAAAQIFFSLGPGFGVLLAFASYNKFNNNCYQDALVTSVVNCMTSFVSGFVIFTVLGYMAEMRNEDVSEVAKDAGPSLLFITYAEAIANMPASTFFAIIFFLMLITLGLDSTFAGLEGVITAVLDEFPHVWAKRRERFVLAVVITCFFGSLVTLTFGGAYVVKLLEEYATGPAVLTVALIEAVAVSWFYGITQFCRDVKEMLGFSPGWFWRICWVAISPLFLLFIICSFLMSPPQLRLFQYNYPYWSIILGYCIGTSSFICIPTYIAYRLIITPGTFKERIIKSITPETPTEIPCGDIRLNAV

For `Cc1ccc(N2CCN(C)CC2)cc1C(=O)NC1(c2cc(-c3cnn(C)c3)nc3ccccc23)CC1` [Compound 4], the Papp [1] was 31.4 ×10⁻⁶ cm/s, the inhibition at 30 µM [2] was -6% and the inhibition at 30 µM (Serotonin Transporter) was 8%. The inhibition at 30 µM (EGFR Kinase) was 9%, the IC50 (Human Cathepsin K) was > 100 µM and the IC50 (Human Chymotrypsin) was > 100 µM. The Ki (hCoV-229E_PLpro2) was > 10 µM, the “activity on 229E PL^pro” value (hCoV-229E_PLpro2) was “nearly inactive” and the inhibition at 30 µM [3] was 14%. For the same compound, the IC50 [4] was > 100 µM and the inhibition at 30 µM (PDE4D2) was 20%.
